{"source": "patent US7217570B2", "about": "“Organotypic intestinal culture and methods of use thereof” (The Wistar Institute of Anatomy and Biology, priority 2001, dated 2007)", "key": {"colonic epithelial cells [1]": {"tested_on": "colonic epithelial cells", "test": "Coating of artificial stroma or plastic with extracellular matrix proteins (Example 3)", "assay_type": "cell-based, human", "excerpt": "Another embodiment of an organotypic culture prepared as described substantially as in Example 2, has an additional component. An extracellular matrix was applied to the organotypic cultures by coating the artificial stroma with matrix proteins Laminin-2 […] (Life Technologies, Rockville, Md.), Laminin-1 […] (Sigma), or Matrigel® gel matrix (Collaborative Research, Bedford, Mass.), which contains Laminin-1 and other matrix proteins, such as collagen IV and […] (Burgeson, R E., et al. 1994 Matrix Biol., 14:209–211 and Page, KC. et al. 1990 J. Biol. Reprod., 43:659–664). Fifty to 100 μl of base medium containing 20 ng/ml of laminins were added onto the surface of the artificial stroma for 60 minutes at 37° C. Matrigel® matrix was diluted 1:5 to 1:10 in base medium before use. After incubation, unbound laminins or Matrigel® matrix were removed by two washings with base medium. The organotypic cultures were incubated at 37° C. in 5% CO2 in growth medium, which was changed daily for 7 days, then three times per week for an additional 21 days. Growth and differentiation of colonic epithelium in growth medium was regulated by ECM components at the interface between the stroma and the epithelial layer. These ECM experiments were done in base medium, supplemented with LIF, SCF, ET3, EGF, insulin, and 1% FCS. […]"}, "[2]": {"tested_on": "colorectal carcinoma cell line HT29", "test": "Growth of carcinoma cell line on laminin substrates", "assay_type": "cell-based", "conditions": "Laminin-2 compared to Laminin-1", "excerpt": "Quantitative analysis of the growth fractions confirmed that the different laminins control growth and differentiation. […] Enteric epithelial cells spread similarly on substrates of Laminins-2 and —I bound to plastic of culture dishes."}, "enteric epithelial cells": {"tested_on": "enteric epithelial cells", "test": "Growth factor modulation of organotypic culture in reduced or modified media (Example 2)", "assay_type": "cell-based, human", "conditions": "growth factor added individually to base medium (MCDB 201/L15, transferrin, antibiotics)", "method": "To determine the role of growth factors on proliferation of colonic epithelial cells, this growth medium was modified by changing combinations of growth factors and deleting serum. Keratinocyte growth factor (KGF, R&D Systems) at 20 ng/ml was also tested as part of 23 growth factor combinations. Total relative cell numbers of a specific type were counted as an average of all nuclei counts from a minimum of 3 randomly selected cross-sections of a reconstruct. Goblet cells were counted based on their typical morphology and positive Alcian staining in at least 3 randomly selected slides. Proliferation rates in % were established by counting the number of BrdU or Ki-67-positive nuclei per total epithelial cell nuclei of section. Apoptotic cells were counted in H&E-stained sections (Vagunda, V. et al. 2000 Anal. Quant. Cytol. Histol., 22:307–310). Apoptotic bodies and nuclei were determined according to the size and numbers of the fragments. Apoptosis was calculated as percentage of total nuclei per section (Kerr, J F. et al. 1972 Br. J. Cancer, 26:239–257) To define the role of critical growth factors supporting growth and differentiation of the enteric epithelial cells, an organotypic culture, such as that described in Example 1, was grown in medium in which the number of supplements was reduced. In other experiments, the growth factors, including insulin, EGF, SCF, ET-3, KGF, bFGF, or AMF were added individually to the base medium (MCDB 201/L15 medium with transferrin and antibiotics). In each case, epithelial cell proliferation was not supported in the organotypic culture. In another experiment, the organotypic cultures were prepared by seeding epithelial cells on the artificial stroma in complete medium C or medium L/S/E or medium L. Medium C contained transferrin, insulin, bFGF, EGF, ET-3, HGF, LIF, SCF, AMF, and 1% FCS as supplements. L/S/E medium contained transferrin, insulin, LIF, SCF, ET-3, EGF, and 1% FCS. L medium contained transferrin, insulin, LIF, EGF, and 1% FCS. Sections of the cultures were stained with H&E and Alcian blue after 12 hours (day 0) and 4 days. Values were generated SD of 5 fields from 2 independent experiments. […] The L/S/E-supplemented base medium (LIF, SCF, ET-3, EGF, insulin, and 1% FCS) induced formation by day 4 of highly disorganized structures of stratified and pseudostratified epithelial cells. The epithelium was hyperplastic with morphological atypia. In contrast to results obtained with complete growth medium, only the upper surface rather than the entire artificial stroma was covered with epithelium."}, "colonic epithelial cells [3]": {"tested_on": "colonic epithelial cells", "test": "Proliferation of organotypic colon cultures in LIF-supplemented base medium (BrdU, 3H-thymidine, cell numbers per area)", "assay_type": "cell-based, human", "method": "Colonic epithelial cells described above were seeded on top of collagen gels containing embedded fibroblasts described above in 0.4 ml of complete growth medium. After seeding onto the matrix of collagen type I with embedded fibroblasts, samples were incubated at 37° C. in 5% CO2 for 60–90 minutes in a low volume of medium (50–100 μl) to enhance attachment. The epithelial cells and clusters attached within 60 minutes. The wells were then filled with complete growth medium. Medium was changed daily for 10 days, then three times per week for an additional 21 days.\nProliferation of organotypic cultures was determined by adding bromodeoxyuridine (BrdU) to the medium according to the manufacturer's instructions (Amersham Pharmacia Biotech, Inc., Piscataway, N.J.). Thymidine incorporation was measured in cells, incubated with 1 μCi ^3H-thymidine/well for 18 hours before harvest and determination of radioactivity.\n(§1) Cell numbers were determined per high-power field (0.11×0.18 mm) using 40× magnification as the mean (±SD) of 364 measurements. Constriction of collagen matrices was measured as the length of the longitudinal axis of collagen harvested on days 0.5, 4 and 10 (mean±SD of 32 measurements of 4 samples. Positive cells per area were counted in 12 consecutive fields per cross-section (mean±SD of 16 areas of 2 random cross-sections from 4 samples. Relative number of positive cells per area was expressed as mean±SD of positive/total cells from 16 areas of 2 random cross-sections for each sample. Statistical significance was tested using Student's t-test."}, "colonic epithelial cells [4]": {"tested_on": "colonic epithelial cells", "test": "Differentiated cells (goblet, enteroendocrine, carbonic anhydrase II) in organotypic colon cultures with LIF", "assay_type": "cell-based, human", "excerpt": "The organotypic cultures were characterized as follows. Harvested organotypic cultures were fixed in 1.5% paraformaldehyde and embedded in paraffin. For electron microscopy (EM), cultures were fixed in 4% glutaraldehyde. For histochemistry and immunohistochemistry, 5-μm thick sections were cut from the paraffin beds and stained with hematoxylin and eosin (H&E) or Alcian Blue using standard procedures.\nGoblet cells were detected using Alcian Blue and EM. Enteroendocrine cells were identified by chromogranin A staining and EM. Immunohistochemical staining was done with monoclonal antibodies specific for: BrdU (Amersham), Ki67 (DAKO, Carpinteria, Calif.), α-smooth muscle actin (SMA) (Sigma), cytokeratin 19 (CK 19; antibody BA17 [33] kindly provided by Dr. J. Kovarik, Brno, Czech Rep.), chromogranin A (Novocastra, New Castle Upon Tyne, UK) and carbonic anhydrase II (The Binding Site Limited, Birmingham, UK). Immunohistochemistry was performed by standard techniques as described (Dai, C. Y. et al, 2000 Gastroenterology, 119, 929–942). Alkaline phosphatase activity of paraffin-embedded samples was detected using colorimetric substrate (AP Substrate Kit, SK 15100, Vector, Burlingame, Calif.).\nas §1"}, "fibroblasts": {"tested_on": "fibroblasts", "test": "Constriction of collagen matrix by embedded fibroblasts and fibroblast numbers", "assay_type": "cell-based, human", "method": "Human smooth muscle cells HIAS119, kindly provided by Dr. E. Levine, The Wistar Institute, were isolated from large blood vessels and maintained in medium M199, supplemented with 10% FCS, 2 mM L-glutamine, and 50 μg/ml bovine hypothalamus extract (Oda, D. et al, 1998 In Vitro Cell. Dev. Biol. Anim., 34, 46–52). Fibroblasts at 8×10^5/ml were embedded in collagen type I (Organogenesis, Canton, Mass.) to a final concentration of 0.9 to 1.1 mg/ml in DMEM supplemented with 50 μM vitamin C (Sigma), 1.66 mM L-glutamine (GIBCO-BRL), and 1% FCS. The suspension was neutralized, pH 7.2, using 7.5% sodium bicarbonate. Chambered slides, Lab-Tek 8 wells (Nunc International, Rochester, N.Y.), were filled with 0.2 ml of the collagen and cell suspension. […]\nas §1"}}, "note": "“Also recorded” adds a separate entry of the source. Where no end group is shown, it is not given here.", "data": [{"substance": "Laminin-2: matrix protein Laminin-2 α2β1γ1 (Life Technologies)", "values": [{"measurement": "control of growth and differentiation of colonic epithelium", "setting": "colonic epithelial cells [1]; coating of artificial stroma, quantitative analysis of growth fractions", "result": "stimulated cell growth"}, {"measurement": "survival of epithelial cells by day 5", "setting": "colonic epithelial cells [1]; laminin bound to plastic of culture dishes", "result": "survived only with Laminin-2"}, {"measurement": "growth of HT29 cells", "setting": "[2]", "result": "better growth"}]}, {"substance": "autocrine motility factor [AMF]", "values": [{"measurement": "epithelial cell proliferation", "setting": "enteric epithelial cells", "result": "not supported"}]}, {"substance": "basic fibroblast growth factor [bFGF]", "values": [{"measurement": "epithelial cell proliferation", "setting": "enteric epithelial cells", "result": "not supported"}]}, {"substance": "endothelin-3 (CTCFTYKDKECVYYCHLDIIW; ends and bridges not checked; cysteine pairing not given here; UniProt P14138 97-117, looked up) [ET-3, endothelin-3 (Peninsula Labs)]", "values": [{"measurement": "epithelial cell proliferation", "setting": "enteric epithelial cells", "result": "not supported"}]}, {"substance": "insulin", "values": [{"measurement": "epithelial cell proliferation", "setting": "enteric epithelial cells", "result": "not supported"}]}, {"substance": "leukemia inhibitory factor [LIF]", "values": [{"measurement": "3H-thymidine incorporation", "setting": "colonic epithelial cells [3]; BM+LIF compared with BM only, after 2 days", "result": "Significant stimulation"}, {"measurement": "Growth of epithelial cells", "setting": "colonic epithelial cells [3]; LIF added to base medium, organotypic culture", "result": "significantly stimulated"}, {"measurement": "number of colonic epithelial cells", "setting": "colonic epithelial cells [3]; LIF-containing base medium versus base medium", "result": "significantly higher"}, {"measurement": "numbers of BrdU-positive and total epithelial cells", "setting": "colonic epithelial cells [3]; LIF-stimulated cultures", "result": "significantly higher"}, {"measurement": "expression of differentiation marker carbonic anhydrase II", "setting": "colonic epithelial cells [4]; LIF only added to base medium", "result": "did not express"}, {"measurement": "percentage of goblet cells among total cells and per area", "setting": "colonic epithelial cells [4]; LIF, FIG. 3A", "result": "lack of stimulation"}, {"measurement": "relative numbers of goblet cells (of all enterocytes)", "setting": "colonic epithelial cells [4]; LIF-cultured, p=0.81 versus control base medium", "result": "3.8±3.5", "unit": "%"}, {"measurement": "numbers of goblet cells per area", "setting": "colonic epithelial cells [4]; LIF-stimulated samples, p=0.13 versus samples without LIF", "result": "2.25±1.66"}, {"measurement": "relative numbers of enteroendocrine cells", "setting": "colonic epithelial cells [4]; in the presence of LIF", "result": "significantly decreased; also recorded: decrease"}, {"measurement": "collagen constriction by fibroblasts", "setting": "fibroblasts; LIF in base medium", "result": "did not change"}, {"measurement": "fibroblast numbers", "setting": "fibroblasts; LIF-stimulated cultures versus control", "result": "no differences"}]}, {"substance": "stem cell factor [SCF]", "values": [{"measurement": "epithelial cell proliferation", "setting": "enteric epithelial cells", "result": "not supported"}]}]}
